Structures can show the parent of a compound that is named as a salt.
Tests used:
Format in all cases: in vivo
[1] = test system: Heliothis virescens (Tobacco Budworm); assay: Comparative Heliothis virescens egg test in petri dishes on artificial diet; conditions: 144 h, 6 days incubation, read-out: percentage of dead larvae; for pest or weed control at 0.8 ppm: concentration 0.8 ppm; for pest or weed control at 1.5 ppm: concentration 1.5 ppm; for pest or weed control at 3 ppm: concentration 3 ppm; for pest or weed control at 6 ppm: concentration 6 ppm
Protocol: This Example illustrates the pesticidal/insecticidal properties of compounds of formula (I) compared to Comparative Compound A and Comparative Compound B. Comparative Compound A and Comparative Compound B were disclosed in WO 2006/003494.
(§1) Heliothis virescens (Tobacco Budworm):
Fresh eggs (0-24 h old) on filterpaper were placed in petri dishes on top of a layer of artificial diet and treated with diluted test solutions by pipetting. After an incubation period of 6 days, samples were checked for larval mortality and growth regulation. The percentage of dead larvae was assessed.

[2] = test system: Spodoptera littoralis (Egyptian Cotton Leafworm); assay: Spodoptera littoralis cotton leaf disc spray test; conditions: foliar, 72 h, 200 ppm spray on cotton leaf discs, L1 larvae, mortality, feeding behavior, growth regulation 3 DAT
Source text: Spodoptera littoralis (Egyptian Cotton Leafworm)
Cotton leaf discs were placed on agar in a 24-well microtiter plate and sprayed with test solutions at an application rate of 200 ppm. After drying, the leaf discs were infested with 5 L1 larvae. The samples were checked for mortality, feeding behavior, and growth regulation 3 days after treatment (DAT).

[3] = test system: Diabrotica balteata (Corn Root Worm); assay: Diabrotica balteata L2 larvae test on artificial diet in 24-well microtiter plate; conditions: 120 h, 200 ppm (concentration in well 18 ppm), 5 days, larval mortality, growth regulation
Protocol: Diabrotica balteata (Corn Root Worm):
A 24-well microtiter plate (MTP) with artificial diet was treated with test solutions at an application rate of 200 ppm (concentration in well 18 ppm) by pipetting. After drying, the MTP's were infested with larvae (L2) (6-10 per well). After an incubation period of 5 days, samples were checked for larval mortality, and growth regulation.

[4] = test system: Plutella xylostella (Diamond Back Moth); assay: Plutella xylostella L2 larvae test on artificial diet in 24-well microtiter plate; conditions: 144 h, 200 ppm (concentration in well 18 ppm), 6 days, larval mortality, growth regulation
Protocol: Plutella xylostella (Diamond Back Moth):
A 24-well microtiter plate (MTP) with artificial diet was treated with test solutions at an application rate of 200 ppm (concentration in well 18 ppm) by pipetting. After drying, the MTP's were infested with L2 larvae (7-12 per well). After an incubation period of 6 days, samples were checked for larval mortality and growth regulation.

[5] = test system: Heliothis virescens (Tobacco Budworm); assay: Heliothis virescens egg test on artificial diet in 24-well microtiter plate; conditions: 96 h, 200 ppm (concentration in well 18 ppm), eggs 0-24 h old, 4 days, egg mortality, larval mortality, growth regulation
Protocol: as §1
Eggs (0-24 h old) were placed in 24-well microtiter plate on artificial diet and treated with test solutions at an application rate of 200 ppm (concentration in well 18 ppm) by pipetting. After an incubation period of 4 days, samples were checked for egg mortality, larval mortality and growth regulation.

Row | SMILES | pest or weed control at 0.8 ppm [1] | pest or weed control at 1.5 ppm [1] | pest or weed control at 3 ppm [1] | pest or weed control at 6 ppm [1] | pest or weed control at 200 ppm [2] | pest or weed control at 200 ppm [3] | pest or weed control at 200 ppm [4] | pest or weed control at 200 ppm [5] | pest or weed control at 200 ppm ([3]; in Zea mays) | pest or weed control at 200 ppm ([2]; in Gossypium hirsutum)
1 | O=C(Nc1ccc(Cl)nc1C1CCN(C/C=C/c2ccc(Cl)cc2)CC1)c1ccnc(Cl)c1 [Comparative Compound A, reference compound] | 30% | 50% | 70% | 93% | – | – | – | – | – | –
2 | O=C(Nc1cc(Cl)cnc1C1CCN(C/C=C/c2ccc(Cl)cc2)CC1)c1ccnc(Cl)c1 [Comparative Compound B, reference compound] | 0% | 50% | 93% | 100% | – | – | – | – | – | –
3 | O=C(Nc1ccc(C(F)(F)F)nc1C1CCN(C/C=C/c2ccc(Cl)cc2)CC1)c1ccnc(Cl)c1 [Compound A14, 2-chloro-N-{1′-[(E)-3-(4-chloro-phenyl)-allyl]-6-trifluoromethyl-1′,2′,3′,4′,5′,6′-hexahydro-[2,4′]bipyridinyl-3-yl}-isonicotinamide] | 100% | 100% | 100% | 100% | ≥ 80% | – | – | – | – | –
4 | O=C(Nc1cc(F)c(Cl)nc1C1CCN(C/C=C/c2ccc(Cl)cc2)CC1)c1ccnc(Cl)c1 [Compound B1, 2-chloro-N-{6-chloro-1′-[(E)-3-(4-chloro-phenyl)-allyl]-5-fluoro-1′,2′,3′,4′,5′,6′-hexahydro-[2,4′]bipyridinyl-3-yl}-isonicotinamide] | 80% | 100% | 100% | 100% | ≥ 80% | ≥ 80% | ≥ 80% | ≥ 80% | – | –
5 | O=C(Nc1cc(Cl)c(Cl)nc1C1CCN(C/C=C/c2ccc(Cl)cc2)CC1)c1ccnc(Cl)c1 [Compound C1, 2-chloro-N-{5,6-dichloro-1′-[(E)-3-(4-chloro-phenyl)-allyl]-1′,2′,3′,4′,5′,6′-hexahydro-[2,4′]bipyridinyl-3-yl}-isonicotinamide] | 100% | 100% | 100% | 100% | ≥ 80% | ≥ 80% | – | – | – | –
6 | O=C(Nc1cc(F)c(Br)nc1C1CCN(C/C=C/c2ccc(Cl)cc2)CC1)c1ccnc(Cl)c1 [Compound D3, N-{6-bromo-1′-[(E)-3-(4-chloro-phenyl)-allyl]-5-fluoro-1′,2′,3′,4′,5′,6′-hexahydro-[2,4]bipyridinyl-3-yl}-2-chloro-isonicotinamide] | 100% | 100% | 100% | 100% | ≥ 80% | ≥ 80% | ≥ 80% | ≥ 80% | – | –
7 | O=C(Nc1cc(Cl)c(C(F)(F)F)nc1C1CCN(C/C=C/c2ccc(Cl)cc2)CC1)c1ccnc(Cl)c1 [Compound H1, 2-chloro-N-{5-chloro-1′-[(E)-3-(4-chloro-phenyl)-allyl]-6-trifluoromethyl-1′,2′,3′,4′,5′,6′-hexahydro-[2,4′]bipyridinyl-3-yl}-isonicotinamide] | 40% | 78% | 100% | 100% | ≥ 80% | – | ≥ 80% | ≥ 80% | – | –
8 | O=C(Nc1c(C2CCN(C/C=C/c3ccc(Cl)cc3)CC2)nc(Cl)c(Cl)c1Cl)c1ccnc(Cl)c1 [Compound J1, 2-chloro-N-{4,5,6-trichloro-1′-[(E)-3-(4-chlorophenyl)-allyl]-1′,2′,3′,4′,5′,6′-hexahydro-[2,4′]bipyridinyl-3-yl}-isonicotinamide] | 40% | 90% | 93% | 100% | ≥ 80% | – | ≥ 80% | ≥ 80% | – | –
9 | O=C(Nc1c(F)cc(C(F)(F)F)nc1C1CCN(C/C=C/c2ccc(Cl)cc2)CC1)c1ccnc(Cl)c1 [Compound K1, 2-chloro-N-{1′-[(E)-3-(4-chloro-phenyl)-allyl]-4-fluoro-6-trifluoromethyl-1′,2′,3′,4′,5′,6′-hexahydro-[2,4′]bipyridinyl-3-yl}-isonicotinamide] | – | – | – | – | ≥ 80% | – | ≥ 80% | ≥ 80% | – | –
10 | O=C(Nc1cc(C(F)(F)F)c(F)nc1C1CCN(C/C=C/c2ccc(Cl)cc2)CC1)c1ccnc(Cl)c1 [Compound M1, 2-chloro-N-{1′-[(E)-3-(4-chloro-phenyl)-allyl]-6-fluoro-5-trifluoromethyl-1′,2′,3′,4′,5′,6′-hexahydro-[2,4′]bipyridinyl-3-yl}-isonicotinamide] | – | – | – | – | ≥ 80% | ≥ 80% | ≥ 80% | ≥ 80% | – | –
11 | O=C(Nc1cc(F)c(F)nc1C1CCN(C/C=C/c2ccc(Cl)cc2)CC1)c1ccnc(Cl)c1 [Compound N1, 2-chloro-N-{1′-[(E)-3-(4-chloro-phenyl)-allyl]-5,6-difluoro-1′,2′,3′,4′,5′,6′-hexahydro-[2,4′]bipyridinyl-3-yl}-isonicotinamide] | – | – | – | – | ≥ 80% | ≥ 80% | ≥ 80% | ≥ 80% | – | –
12 | O=C(Nc1ccc(C(F)F)nc1C1CCN(C/C=C/c2ccc(Cl)cc2)CC1)c1ccnc(Cl)c1 [Compound O1, 2-chloro-N-{1′-[(E)-3-(4-chloro-phenyl)-allyl]-6-difluoromethyl-1′,2′,3′,4′,5′,6′-hexahydro-[2,4]bipyridinyl-3-yl}-isonicotinamide] | – | – | – | – | ≥ 80% | – | ≥ 80% | ≥ 80% | – | –
13 | O=C(Nc1ccc(OC(F)F)nc1C1CCN(C/C=C/c2ccc(Cl)cc2)CC1)c1ccnc(Cl)c1 [Compound P1, 2-chloro-N-{1′-[(E)-3-(4-chloro-phenyl)-allyl]-6-difluoromethoxy-1′,2′,3′,4′,5′,6′-hexahydro-[2,4′]bipyridinyl-3-yl}-isonicotinamide] | – | – | – | – | ≥ 80% | ≥ 80% | ≥ 80% | ≥ 80% | – | –
14 | O=C(Nc1ccc(C(F)(F)F)nc1C1CCN(C/C=C/c2ccc(Cl)cc2)CC1)c1ccnc(Cl)c1 [Compound Q1, 2-chloro-N-{1′-[(E)-3-(4-chloro-phenyl)-allyl]-6-trifluoromethyl-1′,2′,3′,4′,5′,6′-hexahydro-[2,4′]bipyridinyl-3-yl}-isonicotinamide 2-ethyl-hexanoic acid salt] | – | – | – | – | – | ≥ 80% | ≥ 80% | ≥ 80% | – | –
15 | O=C(Nc1cc(Cl)c(Cl)nc1C1CCN(C/C=C/c2ccc(Cl)cc2)CC1)c1ccnc(Cl)c1 [Compound Q20] | – | – | – | – | – | – | ≥ 80% | ≥ 80% | – | –
16 | O=C(Nc1ccc(C(F)(F)F)nc1C1CC[N+]([O-])(C/C=C/c2ccc(Cl)cc2)CC1)c1ccnc(Cl)c1 (stereo not drawn) [Compound R1] | – | – | – | – | – | – | ≥ 80% | ≥ 80% | ≥ 80% | ≥ 80%
17 | O=C(Nc1cc(Cl)c(Cl)nc1C1CC[N+]([O-])(C/C=C/c2ccc(Cl)cc2)CC1)c1ccnc(Cl)c1 (stereo not drawn) [Compound R2] | – | – | – | – | ≥ 80% | ≥ 80% | ≥ 80% | ≥ 80% | – | –
18 | O=C(Nc1ccc(C(F)(F)F)nc1C1CC[N+]([O-])(C/C=C/c2ccc(C(F)(F)F)cc2)CC1)c1ccnc(Cl)c1 (stereo not drawn) [Compound R3] | – | – | – | – | ≥ 80% | ≥ 80% | ≥ 80% | ≥ 80% | – | –
19 | O=C(Nc1cc(C(F)(F)F)c(Cl)nc1C1CC[N+]([O-])(C/C=C/c2ccc(Br)cc2)CC1)c1ccnc(Cl)c1 (stereo not drawn) [Compound R4] | – | – | – | – | ≥ 80% | – | ≥ 80% | ≥ 80% | – | –

Reference: patent publication US8193362B2 (Syngenta Crop Protection LLC, priority 2008, dated 2012)
